{"source": "patent US8222487B2", "about": "“Application of ERF genes from Bupleurum kaoi” (National Tsing Hua University, priority 2009, dated 2012)", "key": {"[1]": {"system": "B. kaoi adventitious roots", "assay": "Fresh weight and appearance of adventitious roots after MeJA", "type": "cell-based, Bupleurum kaoi", "protocol": "FIG. 1 Effect of MeJA on fresh weight and appearance of B. kaoi adventitious roots. (A) Four weeks after subculture, the nutrient medium of B. kaoi adventitious roots was refreshed. MeJA (500 μM) was applied 2 weeks after refreshment. The fresh weights of adventitious roots were measured at 13 time points after MeJA treatment as indicated. (B) Adventitious roots treated with MeJA began to show dark brownish pigmentation after 2 weeks. Each panel is a representative of the adventitious roots at the indicated time points. The left and right flasks for each sub-panel indicate the control and MeJA treated adventitious roots, respectively. (C) H2O2 level and (D) MDA level were measured at the indicated time. Vertical bars indicate S.E. of the mean for n=3.\nAdventitious root cultures were induced from the roots of germ-free seedlings of B. kaoi and were subcultured every 6 weeks by adding 0.2 g roots to a 125 ml flask containing 50 ml of B5 liquid medium supplemented with 2 mg 1^−1 NAA. Cultures were shaken using a rotary shaker at 100 rpm at 25° C. in the dark. To quantify the effect of MeJA on saikosaponin level, adventitious roots were treated with 500 and 1000 μM MeJA 2 weeks after subculture. Total saikosaponin was measured 2 weeks after MeJA treatment. […]"}, "[2]": {"system": "B. kaoi adventitious roots", "assay": "qRT-PCR of MeJA-induced gene transcripts in adventitious roots", "type": "cell-based, Bupleurum kaoi", "conditions": "500 μM MeJA", "protocol": "Adventitious root cultures were induced from the roots of germ-free seedlings of B. kaoi and were subcultured every 6 weeks by adding 0.2 g roots to a 125 ml flask containing 50 ml of B5 liquid medium supplemented with 2 mg 1^−1 NAA. Cultures were shaken using a rotary shaker at 100 rpm at 25° C. in the dark. To quantify the effect of MeJA on saikosaponin level, adventitious roots were treated with 500 and 1000 μM MeJA 2 weeks after subculture. Total saikosaponin was measured 2 weeks after MeJA treatment. To monitor expression of MeJA-responsive genes, the nutrient medium was refreshed 4 weeks after subculture and MeJA (500 μM) was applied 2 weeks after refreshment. Roots were harvested at 13 time points (5 min; 1, 2, 8, 24 hours; 2, 4, 6, 8 days; 2, 3, 4, 5 weeks) after the addition of the MeJA.\nTotal cellular RNA was extracted as described by Chang et al. (Chang et al., Plant Mol. Biol. (1993) 693-699) with some modifications. Three to five grams of tissue was frozen in liquid nitrogen and ground to a fine powder with mortar and pestle. The powder was added to 15 ml of prewarmed (65° C.) extraction buffer (2%, v/v hexadecyltrimethylammonium bromide (CTAB), 2%, v/v polyvinylpyrrolidinone K 30 (PVP), 100 mM Tris-HCl, pH 8.0, 25 mM EDTA, 2 M NaCl, 0.5 mg ml^−1 spermidine, 2% β-mercaptoethanol), and mixed completely by vigorous shaking. The mixture was extracted twice with an equal volume of chloroform:isoamyl alcohol (24:1). The RNA was precipitated by adding ¼ volume of cold 10 M LiCl to the aqueous phase and held for 12 to 18 h at −20° C. After centrifugation at 19,800×g at 4° C., the RNA was dissolved in 500 μl sterile DEPC H2O. The resuspended RNA was reextracted with chloroform:isoamyl alcohol (24:1). Three volumes of 100% ethanol and 1/10 volume of 3 M sodium acetate (pH 5.2) were added to the aqueous phase, and the solution was precipitated with liquid nitrogen for 15 min The RNA was spun down at 19,800×g for 30 min at 4° C. and washed with 80% ethanol. The dried pellet was resuspended in sterile DEPC H2O.\nEach RNA sample of 10 μg in 9 μl sterile DEPC H2O and 1 μl oligo-d(T)18 primer (100 μM) was denatured at 90° C. for 5 min and chilled on ice for 10 min Then 4μ5× reaction buffer (250 mM Tris-HCl, pH 8.0, 375 mM KCl, 15 mM MgCl2), 2 μl 10 mM dNTP, 2 μl 100 mM dithiothreitol (DTT), and 0.5 μl RNasin ribonuclease inhibitor (40 U μl^−1, Promega) were added and incubated at 37° C. for 10 min. After the addition of 1.5 μl Moloney murine leukemia virus (MMLV) reverse transcriptase (200 U μl^−1, Gibco BRL), the reaction was carried out at 37° C. for 90 min, 95° C. for 5 min, then chilled on ice. qRT-PCR reactions were performed with a SYBR Green PCR Master Mix (Applied Biosystems) in a 7500 Real-Time PCR System (Applied Biosystems) using primers designed with Primer Express 2.0 Software (Applied Biosystems). Each reaction was performed in triplicate, and contained 4 μl of a 1:1000 dilution of synthesized cDNA, primers to a final concentration of 100 nM each, 5 μl of the SYBR Green PCR Master mix and sterile deionized H2O to a total volume of 10 μl. PCR reactions were carried out at 50° C. for 2 min, 95° C. for 10 min, 40 cycles of 95° C. for 15 s and 60° C. for 1 min. The specificity of the amplified products was evaluated by analysis of the dissociation curves generated by the equipment. Non-template controls were prepared to confirm absence of contamination. The ratio between the relative amounts of the target gene and the endogenous control gene, in the qRT-PCR reactions, was determined based on the 2^−ΔΔCt method. The target gene expression level was plotted as log10 RQ (RQ=2^−ΔΔCt)."}}}
{"smiles": "CC/C=C\\CC1C(=O)CCC1CC(=O)OC", "note": "(stereo not drawn) [MeJA, Methyl jasmonate]", "values": [{"measurement": "Appearance of roots (pigmentation)", "setting": "[1]; 500 μM MeJA, 2 weeks later, compared to control", "result": "marked pigmentation"}, {"measurement": "Growth of adventitious roots (fresh weight)", "setting": "[1]; 8 days after 500 μM MeJA treatment", "result": "retarded"}, {"measurement": "Peroxidase AM409285 transcripts increase", "setting": "[2]; 2 weeks", "result": 37, "unit": "fold"}, {"measurement": "BkGST1 (AM409308) transcripts increase", "setting": "[2]; 5 min", "result": 3, "unit": "fold"}, {"measurement": "BkGST2 (AM409289) transcripts activation", "setting": "[2]; 5 min", "result": 6, "unit": "fold"}, {"measurement": "B. kaoi PAL (AM409299) transcripts increase", "setting": "[2]; 1 h", "result": 3, "unit": "fold"}, {"measurement": "BkERF1.2 (AM409280) transcripts increase", "setting": "[2]; 1 h", "result": 133, "unit": "fold"}, {"measurement": "Peroxidase AM409296 transcripts increase", "setting": "[2]; 1 h", "result": 7, "unit": "fold"}, {"measurement": "Phospholipase D alpha 1 (AM409303) transcripts induction", "setting": "[2]; 1 h", "result": 6, "unit": "fold"}, {"measurement": "Trypsin protease inhibitor AM409305 transcripts increase", "setting": "[2]; 1 h", "result": 4, "unit": "fold"}, {"measurement": "ACO gene (AM409282) induction", "setting": "[2]; 2 h", "result": 5, "unit": "fold"}, {"measurement": "BkAOC (AM409312) mRNA level induction", "setting": "[2]; 2 h", "result": 9, "unit": "fold"}, {"measurement": "BkERF1.1 (AM409278) transcripts increase", "setting": "[2]; 2 h", "result": 41, "unit": "fold"}, {"measurement": "IAA-amino acid hydrolase (AM409294) transcripts increase", "setting": "[2]; 2 h", "result": 50, "unit": "fold"}, {"measurement": "PIN (AM409287) transcripts increase", "setting": "[2]; 2 h", "result": 166, "unit": "fold"}, {"measurement": "Prephenate dehydratase (AM409309) transcripts induction", "setting": "[2]; 2 h", "result": 7, "unit": "fold"}, {"measurement": "Trypsin protease inhibitor AM409295 transcripts increase", "setting": "[2]; 2 h", "result": 5, "unit": "fold"}, {"measurement": "BkGST2 (AM409289) transcripts increase", "setting": "[2]; 8 h", "result": 161, "unit": "fold"}, {"measurement": "Peroxidase AM409285 transcripts increase", "setting": "[2]; 8 h", "result": 5, "unit": "fold"}, {"measurement": "Protease inhibitor (AM409279) transcripts increase", "setting": "[2]; 8 h", "result": 4, "unit": "fold"}, {"measurement": "Pyruvate kinase gene (AM409311) induction", "setting": "[2]; 8 h", "result": 3, "unit": "fold"}, {"measurement": "UDP-glucosyltransferase gene (AM409293) induction", "setting": "[2]; 8 h", "result": 98, "unit": "fold"}, {"measurement": "Serine protease inhibitor (AM409301) mRNA level increase", "setting": "[2]; 24 h", "result": 3, "unit": "fold"}, {"measurement": "Trypsin protease inhibitor AM409295 transcripts increase", "setting": "[2]; 2 days", "result": 2051, "unit": "fold"}, {"measurement": "IAA-amido synthase gene (AM409281) induction", "setting": "[2]; 4 days", "result": 5, "unit": "fold"}, {"measurement": "IAA-amino acid hydrolase (AM409294) transcripts increase", "setting": "[2]; 4 days", "result": 139, "unit": "fold"}, {"measurement": "Pyruvate kinase gene (AM409311) induction", "setting": "[2]; 4 days", "result": 9, "unit": "fold"}, {"measurement": "B. kaoi PAL (AM409299) transcripts increase", "setting": "[2]; 6 days", "result": 23, "unit": "fold"}, {"measurement": "Basic endochitinase gene (AM409300) induction", "setting": "[2]; 6 days", "result": 726, "unit": "fold"}, {"measurement": "BkSDR (AM409290) transcripts increase", "setting": "[2]; 6 days", "result": 4, "unit": "fold"}, {"measurement": "Glycosyl hydrolase family 18 protein gene (AM409313) induction", "setting": "[2]; 6 days", "result": 61, "unit": "fold"}, {"measurement": "LOX (AM409291) transcript induction", "setting": "[2]; 6 days", "result": 4404, "unit": "fold"}, {"measurement": "PIN (AM409287) transcripts increase", "setting": "[2]; 6 days", "result": 178, "unit": "fold"}, {"measurement": "Peroxidase AM409296 transcripts increase", "setting": "[2]; 6 days", "result": 114, "unit": "fold"}, {"measurement": "Phospholipase D alpha 1 (AM409303) transcripts induction", "setting": "[2]; 6 days", "result": 44, "unit": "fold"}, {"measurement": "Prephenate dehydratase (AM409309) transcripts induction", "setting": "[2]; 6 days", "result": 27, "unit": "fold"}, {"measurement": "Trypsin protease inhibitor AM409305 transcripts increase", "setting": "[2]; 6 days", "result": 2944, "unit": "fold"}, {"measurement": "Zinc finger C2H2 type gene (AM409288) transcripts induction", "setting": "[2]; 6 days", "result": 118, "unit": "fold"}, {"measurement": "ACO gene (AM409282) induction", "setting": "[2]; 8 days", "result": 19, "unit": "fold"}, {"measurement": "BkGST1 (AM409308) transcripts increase", "setting": "[2]; 8 days", "result": 17, "unit": "fold"}, {"measurement": "IAA-amido synthase gene (AM409281) induction", "setting": "[2]; 8 days", "result": 10, "unit": "fold"}, {"measurement": "MYB gene (AM409302) transcripts increase", "setting": "[2]; 8 days", "result": 53, "unit": "fold"}, {"measurement": "OPR2 (AM409310) expression level induction", "setting": "[2]; 8 days", "result": 19, "unit": "fold"}, {"measurement": "Protease inhibitor (AM409279) transcripts increase", "setting": "[2]; 8 days", "result": 90, "unit": "fold"}, {"measurement": "Serine protease inhibitor (AM409301) mRNA level increase", "setting": "[2]; 8 days", "result": 81, "unit": "fold"}, {"measurement": "Plant defensin (AM409284) transcripts increase", "setting": "[2]; after 2 weeks", "result": 5, "unit": "fold"}, {"measurement": "Enoyl-CoA hydratase gene (AM409286) induction", "setting": "[2]; primarily in 4-8 days", "result": 6, "unit": "fold"}, {"measurement": "β-amyrin synthase gene (β-AS, AM421813) transcript level increase", "setting": "[2]; time not stated", "result": 2, "unit": "fold"}]}
